16 molecules from patent US20160046618A1, “Cyclopropyl Fused Thiazin-2-Amine Compounds as Beta-Secretase Inhibitors and Methods of Use” (AMGEN INC., priority 2014, published 2016) can be followed below.

The test system of experiment [1] is Aβ40 in conditioned medium of cells stably expressing Amyloid Precursor Protein (APP). Briefly: In vitro BACE-1 cell-based assay (Aβ40 sandwich ELISA). The note with it: read-out: IC50 IP (μM) BACE1 cell. Summed up:
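APP-expressing cells treated 24 h at 37 °C with compound in 10-point dose response (top 100 μM or 10 μM, 0.1% DMSO final). Secreted Aβ40 in conditioned medium quantified by sandwich ELISA (pAb40 capture, biotinylated 6E10 detection, time-resolved europium fluorescence); IC50 from percent inhibition versus concentration.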

A further experiment addresses human recombinant BACE1 (Homo sapiens (Human), UniProt P56817). Briefly: In vitro enzymatic BACE1 FRET assay. The class given is biochemical. The note with it: read-out: IC50 IP (μM) BACE1 enzyme. Summed up: (§1)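 Ni-NTA-purified recombinant protease incubated with compound; reaction started with 50 nM FRET peptide substrate (fluorophore/quencher flanking the BACE cleavage site) and run 1 h. Stopped with Tris buffer raising pH to neutral; fluorescence read at ex 488/em 590 nm.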

The target of the next experiment is human recombinant BACE2 (Homo sapiens (Human), UniProt Q9Y5Z0). Briefly: In vitro enzymatic BACE2 FRET assay. The class given is biochemical. The following applies: read-out: IC50 IP (μM) BACE2 enzyme. Summed up: as §1
For a further experiment, the target named is Recombinant Cat D (Homo sapiens (Human), UniProt P07339). Briefly: In vitro enzymatic Cathepsin D (Cat D) FRET assay. The class given is biochemical. The following applies: read-out: IC50 IP (μM) CatD. In short, it runs like this:
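Recombinant Cat D expressed in CHO cells, assayed in 0.05 M citrate pH 3.5 with 5 mM CHAPS and 10% DMSO final. Reaction started with 20 nM FRET peptide substrate, incubated one hour, then stopped by Tris buffer to neutral pH; fluorescence read at ex 500/em 580 nm.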

The structures appear in SMILES notation. Like-named read-outs stand apart in the source and are kept apart here.

Chain of human recombinant BACE2 (Q9Y5Z0 63-518): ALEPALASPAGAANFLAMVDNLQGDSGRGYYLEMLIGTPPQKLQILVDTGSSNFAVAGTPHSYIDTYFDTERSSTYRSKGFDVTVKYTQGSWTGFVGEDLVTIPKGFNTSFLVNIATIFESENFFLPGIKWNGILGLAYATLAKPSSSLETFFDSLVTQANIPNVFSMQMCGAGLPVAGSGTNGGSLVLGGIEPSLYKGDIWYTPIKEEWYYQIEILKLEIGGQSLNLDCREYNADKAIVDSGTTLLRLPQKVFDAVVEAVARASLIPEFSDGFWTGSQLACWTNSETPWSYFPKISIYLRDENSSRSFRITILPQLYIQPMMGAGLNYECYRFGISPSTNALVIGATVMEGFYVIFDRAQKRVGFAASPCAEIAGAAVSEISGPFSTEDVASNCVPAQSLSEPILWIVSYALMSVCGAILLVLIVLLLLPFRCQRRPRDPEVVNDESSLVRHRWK
Chain of Recombinant Cat D (P07339 65-412): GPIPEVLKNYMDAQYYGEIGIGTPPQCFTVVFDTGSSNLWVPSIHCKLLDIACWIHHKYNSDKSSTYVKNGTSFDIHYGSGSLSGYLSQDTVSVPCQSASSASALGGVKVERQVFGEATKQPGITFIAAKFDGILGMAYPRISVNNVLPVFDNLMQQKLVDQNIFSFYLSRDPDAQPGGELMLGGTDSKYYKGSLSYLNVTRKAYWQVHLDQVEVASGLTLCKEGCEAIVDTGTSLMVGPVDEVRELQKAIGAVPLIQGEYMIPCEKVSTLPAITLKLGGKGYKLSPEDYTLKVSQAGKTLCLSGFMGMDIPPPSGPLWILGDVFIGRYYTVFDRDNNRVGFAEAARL
Chain of human recombinant BACE1 (P56817 46-501): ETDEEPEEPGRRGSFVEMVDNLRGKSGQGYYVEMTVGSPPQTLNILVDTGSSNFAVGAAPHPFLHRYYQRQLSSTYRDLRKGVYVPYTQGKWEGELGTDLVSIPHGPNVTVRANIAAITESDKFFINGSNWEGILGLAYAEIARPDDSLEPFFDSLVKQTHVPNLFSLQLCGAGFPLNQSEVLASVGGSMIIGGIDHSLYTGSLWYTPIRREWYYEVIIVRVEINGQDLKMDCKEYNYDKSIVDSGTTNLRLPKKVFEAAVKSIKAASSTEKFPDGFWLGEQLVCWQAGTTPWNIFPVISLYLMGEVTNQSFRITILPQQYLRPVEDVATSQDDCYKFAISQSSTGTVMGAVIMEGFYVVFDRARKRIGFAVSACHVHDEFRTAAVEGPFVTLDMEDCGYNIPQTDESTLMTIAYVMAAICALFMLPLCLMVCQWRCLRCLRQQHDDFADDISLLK

As a reminder, the IC50 is the midpoint of a concentration-inhibition curve. `COC[C@H](C)Oc1cnc(C(=O)Nc2ccc(F)c([C@@]3(C)N=C(N)S[C@@]4(C(=O)NC(C)(C)C)C[C@H]43)c2)cn1` [Example 1003, (1S,5S,6S)-3-amino-N-tert-butyl-5-(2-fluoro-5-(((5-((1S)-2-methoxy-1-methylethoxy)-2-pyrazinyl)carbonyl)amino)phenyl)-5-methyl-2-thia-4-azabicyclo[4.1.0]hept-3-ene-1-carboxamide]: the half-maximal inhibitory concentration (IC50) was found to be 0.021 µM in experiment [1], 0.00565 µM on human recombinant BACE1, 0.48 µM on human recombinant BACE2 and 297 µM on Recombinant Cat D.
As to `C#CCOc1cnc2c(Nc3cnc(F)c([C@@]4(C)N=C(N)S[C@@]5([C@@H](O)C(F)(F)F)C[C@H]54)c3)ncnc2c1` [Example 666, (1S)-1-((1S,5S,6S)-3-amino-5-(2-fluoro-5-((7-(2-propyn-1-yloxy)pyrido[3,2-d]pyrimidin-4-yl)ammo)-3-pyridinyl)-5-methyl-2-thia-4-azabicyclo[4.1.0]hept-3-en-1-yl)-2,2,2-trifluoroethanol], the IC50 in experiment [1] came to 0.00772 µM; on human recombinant BACE1, 0.00201 µM; at human recombinant BACE2, 0.177 µM; at Recombinant Cat D, 1690 µM.
For `C[C@]1(c2cc(Nc3nccc4nc(OCc5ncco5)cnc34)cc(F)c2F)N=C(N)S[C@@]2(C(F)F)C[C@@H]12` [Example 866, N-(3-((1S,5S,6S)-3-amino-1-(difluoromethyl)-5-methyl-2-thia-4-azabicyclo[4.1.0]hept-3-en-5-yl)-4,5-difluorophenyl)-2-(1,3-oxazol-2-ylmethoxy)pyrido[3,4-b]pyrazin-5-amine], in that order: 0.0115 µM, 0.000941 µM, 0.0285 µM and over 400 µM.
For `C[C@]1(c2cc(NC(=O)c3ccc(Cl)cn3)cnc2F)N=C(N)S[C@H]2C[C@H]21` [Example 637, N-(5-((1S,5S,6S)-3-Amino-5-methyl-2-thia-4-azabicyclo[4.1.0]hept-3-en-5-yl)-6-fluoropyridin-3-yl)-5-chloropicolinamide], in that order: 0.0121 µM, 0.0213 µM, 0.00261 µM and over 400 µM.
For `Cc1nc(COc2cnc3c(Nc4cc(F)c(F)c([C@@]5(C)N=C(N)S[C@@]6(C(F)F)C[C@@H]56)c4)nccc3n2)no1` [Example 883, N-(3-((1S,5S,6S)-3-amino-1-(difluoromethyl)-5-methyl-2-thia-4-azabicyclo[4.1.0]hept-3-en-5-yl)-4,5-difluorophenyl)-2-((5-methyl-1,2,4-oxadiazol-3-yl)methoxy)pyrido[3,4-b]pyrazin-5-amine], in that order: 0.0133 µM, 0.000316 µM, 0.091 µM and 363 µM.
In the case of `CC(NC(=O)[C@]12C[C@H]1[C@@](C)(c1cc(NC(=O)c3cnc(OCC(F)(F)F)cn3)ccc1F)N=C(N)S2)C(F)F` (stereo partly drawn) [Example 1045, (1S,5S,6S)-3-amino-N-(1,1-difluoropropan-2-yl)-5-(2-fluoro-5-(5-(2,2,2-trifluoroethoxy)pyrazine-2-carboxamido)phenyl)-5-methyl-2-thia-4-azabicyclo[4.1.0]hept-3-ene-1-carboxamide], the 50% inhibitory concentration (IC50) came to 0.0738 µM in experiment [1], 0.00181 µM at human recombinant BACE1, 0.288 µM on human recombinant BACE2 and 194 µM at Recombinant Cat D.
The corresponding values for `C#CCOc1cnc(C(=O)Nc2cnc(OC)c([C@@]3(C)N=C(N)S[C@@]4(C(F)F)C[C@@H]34)c2)cn1` [Example 989, N-(5-((1S,5S,6S)-3-amino-1-(difluoromethyl)-5-methyl-2-thia-4-azabicyclo[4.1.0]hept-3-en-5-yl)-6-methoxy-3-pyridinyl)-5-(2-propyn-1-yloxy)-2-pyrazinecarboxamide] are 0.00067 µM, 0.000518 µM, 0.0406 µM and 174 µM.
The corresponding values for `C[C@]1(c2cc(Nc3nccc4cc(OCc5ncco5)cnc34)cnc2F)N=C(N)S[C@]2(CO)[C@H]1C2(F)F` [Example 669, ((1S,5S,6R)-3-amino-7,7-difluoro-5-(2-fluoro-5-((3-(1,3-oxazol-2-ylmethoxy)-1,7-naphthyridin-8-yl)amino)-3-pyridinyl)-5-methyl-2-thia-4-azabicyclo[4.1.0]hept-3-en-1-yl)methanol] are 0.00593 µM, 0.00119 µM, 0.036 µM and 1140 µM.
`CN(C)C(=O)[C@]12C[C@H]1[C@@](CF)(c1cc(NC(=O)c3ccc(Cl)cn3)ccc1F)N=C(N)S2` [Example 790, (1S,5S,6S)-3-amino-5-(5-(((5-chloro-2-pyridinyl)carbonyl)amino)-2-fluorophenyl)-5-(fluoromethyl)-N,N-dimethyl-2-thia-4-azabicyclo[4.1.0]hept-3-ene-1-carboxamide]: the IC50 in experiment [1] is 0.0028 µM; on human recombinant BACE1, 0.000338 µM; on human recombinant BACE2, under 0.00203 µM; at Recombinant Cat D it was 792 µM.
The corresponding values for `CCC#CCOc1cnc2c(Nc3ccc(F)c([C@@]4(CF)N=C(N)S[C@@]5(/C=C/C(=O)N(C)C)C[C@H]54)c3)nccc2n1` [Example 952, (2E)-3-((1R,5S,6S)-3-amino-5-(fluoromethyl)-5-(2-fluoro-5-((2-(2-pentyn-1-yloxy)pyrido[3,4-b]pyrazin-5-yl)amino)phenyl)-2-thia-4-azabicyclo[4.1.0]hept-3-en-1-yl)-N,N-dimethyl-2-propenamide] are 0.0108 µM, 0.00126 µM, 0.00755 µM and 16.3 µM.
Regarding `C#CCOc1cnc2c(Nc3cc(F)c(F)c([C@@]4(C)N=C(N)S[C@@]5(COC)C[C@H]54)c3)nccc2c1` [Example 733, N-(3-((1S,5S,6S)-3-amino-1-(methoxymethyl)-5-methyl-2-thia-4-azabicyclo[4.1.0]hept-3-en-5-yl)-4,5-difluorophenyl)-3-(2-propyn-1-yloxy)-1,7-naphthyridin-8-amine], the half-inhibitory concentration (IC50) in experiment [1] worked out at 0.014 µM; on human recombinant BACE1, 0.00638 µM; at human recombinant BACE2, 0.0642 µM; at Recombinant Cat D, 1520 µM.
For `CC(C)[C@H](C)NC(=O)[C@]12C[C@H]1[C@@](C)(c1cc(NC(=O)c3cnc(OCC(F)(F)F)cn3)ccc1F)N=C(N)S2` [Example 974, (1S,5S,6S)-3-amino-5-(2-fluoro-5-(5-(2,2,2-trifluoroethoxy)pyrazine-2-carboxamido)phenyl)-5-methyl-N—((S)-3-methylbutan-2-yl)-2-thia-4-azabicyclo[4.1.0]hept-3-ene-1-carboxamide], in that order: 0.00257 µM, 0.00132 µM, 0.014 µM and 14.5 µM.
The corresponding values for `Cc1cc(OCc2ncco2)cnc1C(=O)Nc1cc(F)c(F)c([C@@]2(C)N=C(N)S[C@@]3(C(F)F)C[C@@H]23)c1` [Example 643, N-(3-((1S,5S,6S)-3-amino-1-(difluoromethyl)-5-methyl-2-thia-4-azabicyclo[4.1.0]hept-3-en-5-yl)-4,5-difluorophenyl)-3-methyl-5-(1,3-oxazol-2-ylmethoxy)-2-pyridinecarboxamide] are 0.0328 µM, 0.00246 µM, 0.134 µM and 751 µM.
Take `C[C@]1(c2cc(Nc3ncnc4cc(Cl)cnc34)cc(F)c2F)N=C(N)S[C@@]2(CO)C[C@H]21` [Example 92, ((1S,5S,6S)-3-amino-5-(5-((7-chloropyrido[3,2-d]pyrimidin-4-yl)amino)-2,3-difluorophenyl)-5-methyl-2-thia-4-azabicyclo[4.1.0]hept-3-en-1-yl)methanol]: the IC50 in experiment [1] (BACE1 cell-based assay) worked out at 0.0102 µM; on human recombinant BACE1 (BACE1 FRET enzyme assay) it was 0.0052 µM; on human recombinant BACE2 (BACE2 FRET enzyme assay), 0.00373 µM; on Recombinant Cat D (Cathepsin D FRET enzyme assay) it was 414 µM.
Turning to `CCOC[C@]12C[C@H]1[C@@](CF)(c1cc(NC(=O)c3ncc(C#N)cc3C)ccc1F)N=C(N)S2` [Example 715, N-(3-((1S,5S,6S)-3-amino-1-(ethoxymethyl)-5-(fluoromethyl)-2-thia-4-azabicyclo[4.1.0]hept-3-en-5-yl)-4-fluorophenyl)-5-cyano-3-methyl-2-pyridinecarboxamide], the IC50 was determined as 0.00635 µM in experiment [1], 0.00409 µM on human recombinant BACE1, 0.00881 µM at human recombinant BACE2 and 918 µM at Recombinant Cat D.
`Cc1nc(OCc2ncco2)cnc1C(=O)Nc1ccc(F)c([C@@]2(C)N=C(N)S[C@@]3(C(F)F)C[C@@H]23)c1` [Example 836, N-(3-((1S,5S,6S)-3-amino-1-(difluoromethyl)-5-methyl-2-thia-4-azabicyclo[4.1.0]hept-3-en-5-yl)-4-fluorophenyl)-3-methyl-5-(1,3-oxazol-2-ylmethoxy)-2-pyrazinecarboxamide]: the IC50 in experiment [1] was 0.00389 µM; at human recombinant BACE1 it was 0.00209 µM; on human recombinant BACE2, 0.0362 µM; on Recombinant Cat D it was over 400 µM.
